Data published in PMC10180113, “Thermodynamic and Kinetic Stabilities of Al(III) Complexes with N2O3 Pentadentate Ligands” (Molecules, 2023).
Where two headings read alike, the source gives them in different places. Marks after values point to notes of the source that are not given here.

Legend:
[1] = 0.1 M KNO3, 25 °C, cited from earlier work; for logKAlL: stability constant of Al(III) complex
[2] = cited from earlier work
[3] = Protonation constants of the ligands (pH-potentiometry, spectrophotometry); type: physicochemical; conditions: 0.15 M NaNO3, 25 °C; for logK3^H / logK4^H / logK1^H / logK2^H: pH-potentiometry; for ΣlogK1–4^H: total basicity
Method: Since the thermodynamic properties of any metal complex proposed for in vivo applications must be characterized by high thermodynamic stability, the equilibrium properties of AMPTA, AMPDA-HB, and CD3A-Bn ligands and their Al(III) complexes were investigated in detail. First, the protonation constants of the ligands, defined by Equation (1), were determined by pH-potentiometry and the logKi^H values are listed in Table 1. (1) KiH=HiL/Hi−1LH^+
The protonation constants of the AMPTA, AMPDA-HB, and CD3A-Bn and those of the Al(III) complexes were determined by pH-potentiometric titration. The metal-to-ligand concentration ratio was 1:1 (the concentration of the ligand was generally 0.002 M). For the pH measurements and titrations, a Metrohm 888 Titrando automatic titration workstation with a Metrohm-6.0234.110 combined electrode was used. Equilibrium measurements were carried out at a constant ionic strength (0.15 M NaNO3) in 6 mL samples at 25 °C under magnetic stirring and N2 bubbling. The titrations were made in the pH range 1.7–12.0. KH-phthalate (pH = 4.005) and borax (pH = 9.177) buffers were used to calibrate the pH meter. For the calculation of [H^+] from the measured pH values, the method proposed by Irving et al. was used. A 0.01 M HNO3 solution was titrated with the standardized NaOH solution in the presence of 0.15 M NaNO3 ionic strength. The differences (A) between the measured (pHread) and calculated pH (−log[H^+]) values were used to obtain the equilibrium H^+ concentration from the pH values measured in the titration experiments (A = −0.035). The waiting time between two pH measurements was 60 s. For the equilibrium calculations, the stoichiometric water ionic product (pKw) was also needed to calculate [OH^−] values under basic conditions. The VNaOH-pHread data pairs of the HNO3NaOH titration obtained in the pH range 10.5–12.0 were used to calculate the pKw value (pKw = 13.78). The protonation and stability constants were calculated with the PSEQUAD program.

[4] = parameters: method as in PMID 31830368; conditions: cited from earlier work
[5] = Protonation constants of the ligands (pH-potentiometry, spectrophotometry); type: physicochemical; conditions: 0.15 M NaNO3, 25 °C
[6] = parameters: method as in PMID 31830368; conditions: up to 4 h in PBS, serum, and EDTA solutions; cited from earlier work
[7] = Stability and protonation constants of the Al(III) complexes (pH-potentiometry, 27Al NMR); type: physicochemical; conditions: 0.15 M NaNO3, 25 °C; for logβAlLH−1: cumulative stability constant of AlLH−1; for logKAlLH−1: protonation constant of AlLH−1 species, pH-potentiometry; for logKAlL: stability constant of Al(III) complex, 27Al NMR spectroscopy
Method: The stability and protonation constants of the Al(III) complexes of AMPTA, AMPDA-HB, and CD3A-Bn, defined by Equations (2)–(4), were investigated by pH-potentiometry and by multinuclear NMR spectroscopy at 25 °C in 0.15 M NaNO3 solution. (2) KAlL=AlL/Al^3+L (3) KAlLH−1=AlL/AlLH−1H^+ (4) Al^3++L+OH^− ⇌AlLH−1 βAlLH−1=AlLH−1/Al^3+LOH^−
In order to avoid the hydrolysis of the Al(III) ion, the pH-potentiometric titration of the pre-prepared complexes of AMPTA, AMPDA-HB, and CD3A-Bn ligands was performed at pH > 4.0.
To determine the stability constant of the Al(III) complexes, the ^1H and ^27Al NMR spectra of the Al^3+-AMPTA, Al^3+-AMPDA-HB, and Al^3+-CD3A-Bn systems were recorded in the pH range 8.0–12. ^1H and ^27Al NMR spectra of the three systems are shown in Figures S1–S6.
The analysis of the ^27Al NMR data was used for the calculation of the stability constants of the [Al(AMPTA)], [Al(AMPDA-HB)], and [Al(CD3A-Bn)] complexes. Integrals of the ^27Al NMR signal ([Al(OH)4]^− at 81 ppm, ν½ = 11 Hz; see Figures S2, S4 and S6) were used for the calculation of the logKAlL value of the three Al complexes by taking into account the protonation constant of the AlLH−1 species (Equation (3), Table 1) and the known hydrolysis constants of the free Al^3+ ion (logK[Al(OH)]^2+ = −4.60, logK[Al(OH)2]^+ = −9.09, logK[Al(OH)3] = −14.94 and logK[Al(OH)4]^− = −23.08, logK[Al2(OH)2]^4+ = −8.0, logK[Al3(OH)4]^5+ = −13.47, logK[Al13(OH)32]^7+ = −104.81). […] The equilibrium data obtained by pH-potentiometry and multinuclear NMR spectroscopy were used to calculate the species distribution diagram for the Al(III)-AMPTA, Al(III)AMPDA-HB, and Al(III)-CD3A-Bn systems (Figure 1, Figure 2 and Figure 3). The amount of [Al(OH)4]^− species determined by ^27Al NMR studies (Figures S2, S4 and S6) is also shown in Figure 2, Figure 3 and Figure 4.
The protonation constants of the AMPTA, AMPDA-HB, and CD3A-Bn and those of the Al(III) complexes were determined by pH-potentiometric titration. The metal-to-ligand concentration ratio was 1:1 (the concentration of the ligand was generally 0.002 M). For the pH measurements and titrations, a Metrohm 888 Titrando automatic titration workstation with a Metrohm-6.0234.110 combined electrode was used. Equilibrium measurements were carried out at a constant ionic strength (0.15 M NaNO3) in 6 mL samples at 25 °C under magnetic stirring and N2 bubbling. The titrations were made in the pH range 1.7–12.0. KH-phthalate (pH = 4.005) and borax (pH = 9.177) buffers were used to calibrate the pH meter. For the calculation of [H^+] from the measured pH values, the method proposed by Irving et al. was used. A 0.01 M HNO3 solution was titrated with the standardized NaOH solution in the presence of 0.15 M NaNO3 ionic strength.

[8] = parameters: method as in doi:10.1007/s11144-015-0892-6; conditions: 1.0 M NaCl, cited from earlier work
[9] = parameters: method as in doi:10.1021/ac60305a041, doi:10.1021/ja00792a018; conditions: 0.5 M Me4NCl, 25 °C; cited from earlier work

O=C(O)CN(CC(=O)O)[C@@H]1CCCC[C@H]1N(CC(=O)O)CC(=O)O (relative stereo) [CDTA, trans-1,2-diaminocyclohexane-N,N,N′,N′-tetraacetic acid]
logKAlLH−1 [1]: 7.70 ^e
logβAlLH−1 [1]: 11.2 ^e
logKAlL [1]: 18.9 ^e
logK1^H ([2]; 0.15 M NaNO3, 25 °C): 9.54
logK2^H ([2]; 0.15 M NaNO3, 25 °C): 6.08
logK3^H ([2]; 0.15 M NaNO3, 25 °C): 3.65
logK4^H ([2]; 0.15 M NaNO3, 25 °C): 2.69
logK5^H ([2]; 0.15 M NaNO3, 25 °C): 1.14
ΣlogK1–4^H ([2]; 0.15 M NaNO3, 25 °C): 21.96

O=C(O)CN(Cc1ccccc1O)CC1CCCCN1CC(=O)O (stereo not shown) [AMPDA-HB]
logK1^H ([2]; 0.15 M NaCl, 25 °C): 12.4
logK2^H ([2]; 0.15 M NaCl, 25 °C): 10.14
logK3^H ([2]; 0.15 M NaCl, 25 °C): 4.76
logK4^H ([2]; 0.15 M NaCl, 25 °C): 1.91
ΣlogK1–4^H ([2]; 0.15 M NaCl, 25 °C): 29.21
logK3^H [3]: 4.94 (5)
logK4^H [3]: 2.01 (5)
ΣlogK1–4^H [3]: 28.87
excretion of the [Al18F]-labelled complex in vivo [4]: rapid hepatobiliary and renal excretion
accumulation in the bones of the [Al18F]-labelled complex ([4]; in vivo): low accumulation in the bones
logK1^H [5]: 12.0 (1) ^b
logK2^H [5]: 9.92 (5) ^b
stability in vitro of the [Al18F]-labelled complex [6]: high stability
logβAlLH−1 [7]: 11.7 (1)
logKAlLH−1 [7]: 6.94 (6)
logKAlL [7]: 18.6 (1) ^d

O=C(O)CN(CC(=O)O)CC1CCCCN1CC(=O)O (stereo not shown) [AMPTA]
logK1^H ([2]; 0.15 M NaCl, 25 °C): 11.67
logK2^H ([2]; 0.15 M NaCl, 25 °C): 5.47
logK3^H ([2]; 0.15 M NaCl, 25 °C): 2.74
logK4^H ([2]; 0.15 M NaCl, 25 °C): 1.62
ΣlogK1–4^H ([2]; 0.15 M NaCl, 25 °C): 21.50
logK1^H [3]: 11.49 (1)
logK2^H [3]: 5.56 (4)
logK3^H [3]: 2.75 (5)
logK4^H [3]: 1.73 (5)
ΣlogK1–4^H [3]: 21.53
logβAlLH−1 [7]: 9.8 (1)
logKAlLH−1 [7]: 5.06 (6)
logKAlL [7]: 14.9 (1) ^d

O=C(O)CN(CC(=O)O)[C@@H]1CCCC[C@H]1N(CC(=O)O)Cc1ccccc1 [CD3A-Bn, trans-1,2-diaminocyclohexane-N-benzyl-N,N′,N′-triacetic acid]
logK1^H [3]: 10.72 (2)
logK2^H [3]: 5.22 (3)
logK3^H [3]: 3.34 (3)
logK4^H [3]: 0.59 (9)
ΣlogK1–4^H [3]: 19.87
logβAlLH−1 [7]: 9.3 (1)
logKAlLH−1 [7]: 5.20 (4)
logKAlL [7]: 14.5 (1) ^d

O=C(O)CN(CCN(CC(=O)O)CC(=O)O)CC(=O)O [EDTA]
logKAlLH−1 [1]: 6.0 ^e
logβAlLH−1 [1]: 10.5 ^e
logKAlL [1]: 16.5 ^e
logK1^H ([2]; 0.15 M NaNO3, 25 °C): 9.40
logK2^H ([2]; 0.15 M NaNO3, 25 °C): 6.10
logK3^H ([2]; 0.15 M NaNO3, 25 °C): 2.72
logK4^H ([2]; 0.15 M NaNO3, 25 °C): 2.08
logK5^H ([2]; 0.15 M NaNO3, 25 °C): 1.23
ΣlogK1–4^H ([2]; 0.15 M NaNO3, 25 °C): 20.30

O=C([O-])CN1CCN(CC(=O)[O-])CCN(CC(=O)[O-])CC1.[Al+3] [[Al(NOTA)]]
KAl(L)H−2 (KAl(NOTA)H−1 for [Al(NOTA)]) ([8]; 25 °C): 1.6 × 10^12 c M^−1
k0 ([8]; 25 °C): 2e-06 s⁻¹
k1 (kOH for [Al(NOTA)]) ([8]; 25 °C): 6.8 × 10^−6 b M^−1 s^−1
logKAl(L)H−2 ([8]; 25 °C): 12.2
kd (pH = 7.4) ([8]; pH 7.4, 25 °C): 2 × 10^−6 s^−1
t1/2 (pH = 7.4), dissociation half-life (ln2/kd) ([8]; pH 7.4, 25 °C): 94 h

O=C([O-])CN(CC(=O)O)C1CCCCC1N(CC(=O)O)CC(=O)O.[Na+] (stereo not shown) [[Na(CDTA)]^3−]
logKNaL [9]: 4.66

O=C([O-])CN(CCN(CC(=O)O)CC(=O)O)CC(=O)O.[Na+] [[Na(EDTA)]^3−]
logKNaL [9]: 1.43

Oc1ccccc1 [phenol]
logK^H ([2]; 0.1 M NaClO4): 10.0
